These results are taken from ChEMBL document CHEMBL1137470, “Pyrrolidinones as potent functional antagonists of the human melanocortin-4 receptor” (Bioorg Med Chem Lett, 2007).

The nature of data set [1]: Permeability from basolateral to apical side of the Caco-2 cell membrane. It counts as ADME, cell-based. As to conditions: human, read-out: permeability.
A short description of data set [2]: Drug level in rat brain at 5 mg/kg, iv after 1 hr. It counts as ADME, organism-based. The following applies: read-out: Drug uptake. More on the design: dose 5 mg/kg, route intravenous.
Data set [3] in a line: Plasma clearance in mouse at 5 mg/kg, iv. The class given is ADME, organism-based. More on the design: dose 5 mg/kg, route intravenous.
Data set [4] can be described thus: Volume of distribution in mouse at 5 mg/kg, iv. It counts as ADME, organism-based. Details: dose 5 mg/kg, route intravenous. As to conditions: in vivo.
A short description of data set [5]: Half life in mouse at 5 mg/kg, iv. It counts as ADME, organism-based. Details: dose 5 mg/kg, route intravenous. The following applies: in vivo.
The nature of data set [6]: AUC in mouse at 5 mg/kg, iv. It counts as ADME, organism-based. The following applies: plasma. More on the design: dose 5 mg/kg, route intravenous.
Data set [7] is described as follows: Drug level in mouse brain at 5 mg/kg, iv after 1 hr. It counts as ADME, organism-based. More on the design: dose 5 mg/kg, route intravenous. The following applies: read-out: Drug uptake.
The nature of data set [8]: Drug level in mouse brain at 5 mg/kg, iv after 4 hrs. It counts as ADME, organism-based. Details: dose 5 mg/kg, route intravenous. As to conditions: read-out: Drug uptake.
Data set [9] is described as follows: Ratio of drug level in brain to plasma in rat at 5 mg/kg, iv after 1 hr. More on the design: dose 5 mg/kg, route intravenous. The following applies: read-out: BPR. The class given is ADME, organism-based.
Data set [10] can be described thus: Cmax in mouse at 10 mg/kg, po after 2 hrs. As to conditions: in vivo. More on the design: dose 10 mg/kg, route oral. It counts as ADME, organism-based.
A short description of data set [11]: Tmax in mouse at 10 mg/kg, po. Details: dose 10 mg/kg, route oral. It counts as ADME, organism-based. As to conditions: in vivo.
Data set [12] can be described thus: AUC in mouse at 10 mg/kg, po. The class given is ADME, organism-based. Details: dose 10 mg/kg, route oral. As to conditions: plasma.
The nature of data set [13]: Oral bioavailability in mouse at 10 mg/kg, po. It counts as ADME, organism-based. The following applies: in vivo.
Data set [14] is described as follows: Lipophilicity, log D by shake-flask method. It counts as physicochemical. The following applies: octanol/water.
The nature of data set [15]: Ratio of drug level in brain to plasma in mouse at 5 mg/kg, iv after 1 hr. The class given is ADME, organism-based. Details: dose 5 mg/kg, route intravenous. The following applies: read-out: BPR.
A short description of data set [16]: Apparent permeability across Caco-2 cells. As to conditions: human. The class given is ADME, cell-based. For orientation: Caco-2 monolayers are a common model of the intestinal barrier.
A short description of data set [17]: Ratio of drug level in brain to plasma in mouse at 5 mg/kg, iv after 4 hrs. It counts as ADME, organism-based. More on the design: dose 5 mg/kg, route intravenous. As to conditions: read-out: BPR.

As usually defined, the clearance is the volume of plasma or blood freed of the substance per unit of time. The low end stands for inefficient removal, the high end for efficient removal. In general, Vd refers to the apparent volume that relates the amount in the body to the concentration in plasma or blood. By half-life is commonly meant the time needed for the level to fall by half in the phase considered. A higher half-life goes with slow loss. By AUC is commonly meant concentration integrated over time. Higher therefore signals more exposure. What is called Cmax is the maximum level reached in the sampled fluid or tissue. Usually Tmax stands for the time at which the peak concentration occurs. For orientation: bioavailability means dose-corrected exposure relative to a reference, in per cent. A lower bioavailability goes with little systemic uptake. Usually logD stands for the decadic logarithm of the distribution of all forms, ionised or not, between an organic phase and buffer at a given pH. By Papp is commonly meant the rate of passage across a membrane or cell layer, normalised by area and donor concentration. With `CC(C)C[C@H](NCCN)c1cccc(F)c1N1CCN(C(=O)[C@@H](Cc2ccc(Cl)cc2Cl)N2CCCC2=O)CC1`, in data set [1], the Papp B→A is 6.7 ×10⁻⁶ cm/s. Besides, the concentration at 1 h was 81 ng/g in [2] and 63 ng/g in [7]. In [3], this molecule returned a clearance of 15 mL/min/kg. Moreover, the Vd in data set [4] was determined as 13 L/kg. The half-life in [5] was 10 h. Moreover, the area under the curve (AUC) turned out to be 9980 ng·h/mL in [6] and 1950 ng·h/mL in data set [12]. The concentration at 4 h in data set [8] came to 53 ng/g. In addition, the Kp at 1 h in data set [9] was determined as 0.47; in [15], 0.14. For the same molecule, the concentration in [10] peaked (Cmax) at 552 ng/mL. In [11], the Tmax amounted to 2 h. In data set [13], this molecule displayed a bioavailability of 19.5%. The molecule also came in with a logD in data set [14] of 1.8. In addition, in data set [16], the Papp was 2 ×10⁻⁶ cm/s.

As to `CC(C)C[C@H](NCCN)c1cc(F)ccc1N1CCN(C(=O)[C@@H](Cc2ccc(Cl)cc2Cl)N2CCCC2=O)CC1`, in data set [17], the Kp at 4 h was 0.23.
